Where “and” joins values, the source holds several entries; their conditions need not be identical. Equal values may be shown once.
Tested on: blood-brain barrier
Assay: Histological examination of blood-brain barrier leakage of Evans blue dye after external heating
Format: in vivo, mice
Settings: one line per animal
Text: Staining of the blood-brain barrier is a traditional method for evaluating blood-brain barrier leakage. Evans Blue dye, an exogenous tracer, is used to assess the integrity of the blood-brain barrier following a hyperthermic disruption. The dye molecules are able to easily diffuse through the fenestrated endothelial cells of all capillaries except those of the brain due to a functional blood-brain barrier. However, once the blood-brain barrier is compromised, Evans blue enters the brain and it fluoresces with excitation peaks at 470 and 540 nm and an emission peak at 680 nm. Histological staining techniques can therefore reflect the extent of blood-brain barrier leakage by studying the intensity of Evans blue dye in the brain.
Phase ii. The purpose of this part of the experiment was to examine the feasibility of hyperthermic disruption of the blood-brain barrier as well as its recovery period from thermal damage using Evans blue staining technique. Here, nine mice, each 6-8 weeks of age, were randomly divided into three identical groups. In contrast to the previous part, no holes were drilled into the exposed surface of the skull of these animals. In order to correlate temperature patterns with stains left from the Evans blue dye, the heating parameters for all groups were kept the same as was described in the first part of this experiment. […]

Diameter of BBB leakage of Evans blue (mm) (Group I Hyperthermic Disruption, 30 min heating near Bregma, sacrificed one hour after dye): 0 mm and 4.22 mm and 2.46 mm | Diameter of BBB leakage of Evans blue (mm) (Group II Recovery from Hyperthermia, dye injected 2 hours after 30 min thermal treatment): 0 mm and 0.62 mm and 1.98 mm
Structure (SMILES): Cc1cc(-c2ccc(/N=N/c3ccc4c(S(=O)(=O)O)cc(S(=O)(=O)O)c(N)c4c3O)c(C)c2)ccc1/N=N/c1ccc2c(S(=O)(=O)O)cc(S(=O)(=O)O)c(N)c2c1O [Evans blue]

Reference: patent US20150126964A1, “DRUG DELIVERY ACROSS THE BLOOD-BRAIN BARRIER USING MAGNETICALLY HEATABLE ENTITIES” (CORPORATION DE L'ECOLE POLYTECHNIQUE DE MONTREAL, priority 2012, published 2015)
